The values below are quoted from earlier work in patent US7098239B2, “Dipeptidyl peptidase inhibitors for the treatment of diabetes” (Merck & Co., Inc, priority 2001, dated 2006).

One series has as its target T1, DP-IV (Homo sapiens, UniProt P27487).
T1 construct: GRF is rapidly degraded in plasma to GRF[3–44]

The subject of another series is hematopoiesis. Conditions: mouse model of cyclophosphamide-induced neutropenia.
For a further series, the system named is cardiac allograft. Conditions: rats; survival doubled from day 7 to day 14.

T1 sequence (P27487 39-766 limits assumed): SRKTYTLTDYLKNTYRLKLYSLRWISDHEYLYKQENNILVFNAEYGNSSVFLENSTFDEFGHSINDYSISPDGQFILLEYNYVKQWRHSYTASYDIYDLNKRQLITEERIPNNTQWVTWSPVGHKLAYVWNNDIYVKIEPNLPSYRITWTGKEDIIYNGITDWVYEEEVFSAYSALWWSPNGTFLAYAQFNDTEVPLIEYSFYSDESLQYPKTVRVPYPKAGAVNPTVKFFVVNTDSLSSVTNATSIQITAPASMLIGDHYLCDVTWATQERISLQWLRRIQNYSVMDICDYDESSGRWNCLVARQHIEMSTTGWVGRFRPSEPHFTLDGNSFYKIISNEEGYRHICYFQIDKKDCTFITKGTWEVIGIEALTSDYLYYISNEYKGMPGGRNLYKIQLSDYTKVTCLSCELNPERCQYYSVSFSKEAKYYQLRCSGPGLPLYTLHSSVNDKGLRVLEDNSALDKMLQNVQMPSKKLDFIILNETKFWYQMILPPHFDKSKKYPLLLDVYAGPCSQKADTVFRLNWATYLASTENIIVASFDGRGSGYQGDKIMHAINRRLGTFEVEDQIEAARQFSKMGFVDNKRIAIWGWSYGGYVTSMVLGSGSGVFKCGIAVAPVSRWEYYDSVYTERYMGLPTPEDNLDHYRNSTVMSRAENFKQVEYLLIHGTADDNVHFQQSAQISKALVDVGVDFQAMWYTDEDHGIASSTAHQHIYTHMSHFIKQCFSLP

In the case of diprotin A, the “degradation of GRF in plasma to GRF[3-44]” value on DP-IV is reported as “prevented”.
For `CC(C)[C@H](N)C(=O)N1CCC[C@H]1B(O)O` [Val-Boro-Pro], the hematopoiesis result with hematopoiesis is “stimulates hematopoiesis”.
As to `CC(C)N1CCC(c2ccccc2)(c2ccccc2)CC1` [Prodipine, Pro-Pro-diphenyl-phosphonate], the cardiac allograft survival in the series on cardiac allograft is given as 14 day.
